Reference: patent US8030442B2, “Treatment of injury to the brain by inhibition of acid sensing ion channels” (priority 2004, dated 2011)
“Also recorded” adds a separate entry of the source.

Experiments:
[1] = target: T1, ASICs in cortical neurons (Mus musculus, UniProt Q6NXK8); assay: Ca2+-mediated acid-activated current in cortical neurons (10 mM Ca2+ as only charge carrier); assay type: cell-based; details: pH 6.0, -60 mV, n=6, read-out: peak amplitude of Ca2+-mediated current, % of control
T1 construct: indicating significant Ca^2+ permeability of ASICs in the majority of cortical neurons; endogenous in cells; host or cells: primary cultured mouse cortical neurons
T1 sequence (Q6NXK8 1-526): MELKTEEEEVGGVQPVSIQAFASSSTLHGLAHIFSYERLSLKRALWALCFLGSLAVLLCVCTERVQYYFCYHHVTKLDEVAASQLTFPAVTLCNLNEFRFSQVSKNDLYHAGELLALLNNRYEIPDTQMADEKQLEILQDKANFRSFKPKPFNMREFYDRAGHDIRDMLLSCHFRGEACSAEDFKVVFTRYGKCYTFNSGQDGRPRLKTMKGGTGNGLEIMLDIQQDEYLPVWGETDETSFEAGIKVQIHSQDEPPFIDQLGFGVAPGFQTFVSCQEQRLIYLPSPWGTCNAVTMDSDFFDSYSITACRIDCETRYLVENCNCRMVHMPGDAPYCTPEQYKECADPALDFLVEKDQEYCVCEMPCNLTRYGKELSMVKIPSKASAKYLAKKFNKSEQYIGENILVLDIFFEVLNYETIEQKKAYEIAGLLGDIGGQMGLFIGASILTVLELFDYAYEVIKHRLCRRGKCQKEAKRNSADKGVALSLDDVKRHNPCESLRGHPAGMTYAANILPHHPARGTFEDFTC

cortical neurons [2] = assay type: cell-based, mouse; details: with MK801, CNQX, nimodipine, ω-conotoxin MVIIC; n=6-8
[3] = test system: cortical neurons cultured from ASIC+/+ and ASIC1-/- mice; assay: LDH release in neurons cultured from ASIC+/+ and ASIC1-/- mice; assay type: cell-based, mouse
Method: Following anesthesia with halothane, cerebral cortices were dissected from PI ASIC1^+/+ and ASIC1^−/− mice and incubated with 0.05% trypsin-EDTA for 10 min at 37° C. Tissues were then triturated with fire-polished glass pipettes and plated on poly-L-ornithine-coated 24-well plates or 25×25 mm glass coverslips at a density of 2.5×10^5 cells per well or 10^6 cells per coverslip. Neurons were cultured with MEM supplemented with 10% horse serum (for E16 cultures) or Neurobasal medium supplemented with B27 (for P1 cultures) and used for electrophysiology and toxicity studies after 12 days. Glial growth was suppressed by addition of 5-fluoro-2-deoxyuridine and uridine, yielding cultured cells with ˜90% neurons as determined by NeuN and GFAP staining (data not shown).
Cells were treated with either pH 7.4 or 6.0 ECF for 1 hr. LDH release was measured 24 hr after acid incubation. […] Background absorbance at 620 was subtracted.

[4] = test system: COS-7 cells stably transfected with ASIC1a; assay: Acid-induced LDH release in ASIC1a-transfected COS-7 cells; assay type: cell-based; details: 100 μM, 1 hr pH 6.0, 24 hr
Method: COS-7 cells, a cell line commonly used for expression of ASICs due to its lack of endogenous channels (Chen et al. 1998; Immke and McCleskey 2001 and Escoubas et al. 2000), were cultured in MEM with 10% HS and 1% PenStrep (GIBCO). At ˜50% confluence, cells were cotransfected with cDNAs for ASICs and GFP in pcDNA3 vector using FuGENE6 transfection reagents (Roche Molecular Biochemicals). DNA for ASICs (0.75 μg) and 0.25 μg of DNA for GFP were used for each 35 mm dish. GFP-positive cells were selected for patch-clamp recording 48 hr after transfection. For stable transfection of ASIC1a, 500 μg/mL G418 was added to culture medium 1 week following the transfection. The surviving G418-resistant cells were further plated and passed for >5 passages in the presence of G418. Cells were then checked with patch-clamp and immunofluorescent staining for the expression of ASIC1a.
To provide additional evidence that activation of ASIC1a is involved in acid injury, acid injury of nontransfected and ASIC1a transfected COS-7 cells as described above was studied. Following confluence (36-48 hr after plating), cells were treated with either pH 7.4 or 6.0 ECF for 1 hr.
LDH release was measured 24 hr after acid incubation. […] Background absorbance at 620 was subtracted.

TRPM7 channels = TRPM7 channels (Homo sapiens, UniProt Q96QT4); assay: TRPM7 conductance, current-voltage relationship; assay type: cell-based; details: 100 μM or 500 μM, ~10 min
TRPM7 channels, sequence (Q96QT4 whole entry, the tested form may be a part): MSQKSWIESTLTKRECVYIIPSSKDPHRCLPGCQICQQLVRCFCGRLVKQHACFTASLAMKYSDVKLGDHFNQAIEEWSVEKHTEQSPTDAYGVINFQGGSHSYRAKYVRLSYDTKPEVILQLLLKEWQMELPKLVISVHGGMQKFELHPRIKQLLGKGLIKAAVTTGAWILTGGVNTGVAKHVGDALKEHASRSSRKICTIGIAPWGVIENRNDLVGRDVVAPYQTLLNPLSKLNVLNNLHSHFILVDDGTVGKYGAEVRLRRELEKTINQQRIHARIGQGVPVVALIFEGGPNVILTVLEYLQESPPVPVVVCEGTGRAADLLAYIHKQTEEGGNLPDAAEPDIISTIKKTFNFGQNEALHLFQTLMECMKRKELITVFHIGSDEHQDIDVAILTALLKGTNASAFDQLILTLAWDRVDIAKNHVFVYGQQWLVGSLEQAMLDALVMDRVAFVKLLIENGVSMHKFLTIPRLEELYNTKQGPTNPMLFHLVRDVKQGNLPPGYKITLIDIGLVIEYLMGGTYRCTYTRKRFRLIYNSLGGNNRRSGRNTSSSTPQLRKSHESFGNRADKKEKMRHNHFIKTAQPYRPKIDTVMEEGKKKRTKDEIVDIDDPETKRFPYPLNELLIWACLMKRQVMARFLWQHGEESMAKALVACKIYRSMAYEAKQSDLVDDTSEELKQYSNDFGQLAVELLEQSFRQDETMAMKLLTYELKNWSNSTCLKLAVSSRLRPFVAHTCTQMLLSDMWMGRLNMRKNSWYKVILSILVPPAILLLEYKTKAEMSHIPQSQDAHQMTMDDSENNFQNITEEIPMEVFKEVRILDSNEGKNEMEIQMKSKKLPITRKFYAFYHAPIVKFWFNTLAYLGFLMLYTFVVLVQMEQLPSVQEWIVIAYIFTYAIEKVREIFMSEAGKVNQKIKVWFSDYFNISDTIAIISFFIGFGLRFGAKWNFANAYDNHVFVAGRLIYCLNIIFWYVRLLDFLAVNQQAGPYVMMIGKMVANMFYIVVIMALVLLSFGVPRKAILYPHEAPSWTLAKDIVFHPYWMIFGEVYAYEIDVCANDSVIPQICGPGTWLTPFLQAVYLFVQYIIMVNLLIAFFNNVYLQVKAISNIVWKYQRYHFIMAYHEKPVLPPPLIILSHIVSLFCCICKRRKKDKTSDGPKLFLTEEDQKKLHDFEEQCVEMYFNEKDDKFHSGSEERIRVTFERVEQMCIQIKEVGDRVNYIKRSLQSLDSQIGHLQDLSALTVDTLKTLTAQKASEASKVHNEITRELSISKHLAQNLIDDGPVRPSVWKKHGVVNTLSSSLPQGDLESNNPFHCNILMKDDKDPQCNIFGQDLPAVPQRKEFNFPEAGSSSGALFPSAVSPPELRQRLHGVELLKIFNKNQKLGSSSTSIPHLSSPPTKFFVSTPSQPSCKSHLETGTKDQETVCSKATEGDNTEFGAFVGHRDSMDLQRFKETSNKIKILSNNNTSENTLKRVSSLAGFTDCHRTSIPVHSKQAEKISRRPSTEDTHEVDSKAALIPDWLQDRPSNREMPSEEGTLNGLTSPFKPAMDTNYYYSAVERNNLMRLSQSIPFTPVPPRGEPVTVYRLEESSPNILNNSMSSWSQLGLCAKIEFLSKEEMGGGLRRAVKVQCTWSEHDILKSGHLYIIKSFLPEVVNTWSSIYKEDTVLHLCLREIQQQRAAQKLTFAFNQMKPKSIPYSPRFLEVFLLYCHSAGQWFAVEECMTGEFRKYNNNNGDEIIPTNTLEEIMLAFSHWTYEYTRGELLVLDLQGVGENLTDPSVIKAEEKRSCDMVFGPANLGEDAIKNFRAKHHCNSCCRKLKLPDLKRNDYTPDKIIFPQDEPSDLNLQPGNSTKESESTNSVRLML
Method: In FIG. 36, after a stable current-voltage relationship (I-V curve) was recorded, amiloride at either 100 μM or 500 μM was perfused to the cell for ˜10 min. The I-V curve in the presence of amilolide was then generated (FIG. 36 A). Similarly in FIG. 36B, after a stable I-V curve was recorded, PcTX venom at 300 ng/ml was perfused to the cell for ˜10 min. The I-V curve in the presence of PcTX venom was then generated.

[5] = test system: rat model of transient focal ischemia; assay type: in vivo; details: n=11
hippocampal slice = assay: Seizure-like activity in hippocampal slices in magnesium-free aCSF; details: 100 μM for thirty minutes
Method: Hippocampal slices were bathed in magnesium-free artificial cerebrospinal fluid (aCSF). The absence of magnesium in the fluid makes neurons in the slice susceptible to seizure-like electrical activity. Accordingly, the hippocampal slice maintained in magnesium-free fluid provides a model system for epilepsy. Electrical potential was measured prior to addition of any compounds, after treatment with PcTX venom followed by electrical stimulation, after PcTX venom was removed, with amiloride, during transient removal of kyneuric acid, and kainic acid to promote seizure activity in the mice with or without injection of PcTX venom.
The three graphs in panel 23A show the electrical potential measured from the same hippocampal slice after electrical stimulation near the beginning of each voltage trace, to promote depolarization followed by re-polarization (a peak(s) in the voltage trace). Electrical stimulation of a control hippocampal slice, bathed in fluid with a physiological magnesium level, produced a single peak in the voltage trace (not shown here). In contrast, as shown here in the first graph of panel 23A, electrical stimulation of a hippocampal slice maintained in aCSF without magnesium produced a series of individual peaks, indicative of seizure-like activity.

[6] = test system: cultured hippocampal neurons; assay: Seizure-like electrical activity of cultured hippocampal neurons on kyneuric acid removal; assay type: cell-based; details: during kyneuric acid removal
Method: The neurons were grown in the presence of kyneuric acid. Removal of the kyneuric acid promoted spontaneous, sustained electrical activity by the neurons.
The magnitude and periodicity of the peaks in the voltage traces changed upon exposure to amiloride.

cortical neurons [7] = assay: Acid-induced LDH release in cortical neurons

SMILES: N=C(N)NC(=O)c1nc(Cl)c(N)nc1N [amiloride]
- remaining activity at 100 µM [1]: 26%
- peak and sustained acid-induced increases in [Ca2+]i (cortical neurons [2]): largely inhibited
- acid-induced LDH release in ASIC+/+ neurons ([3]; 1 hr pH 6.0, n=8-12): reduced
- effect on acid-induced LDH release in ASIC1-/- neurons ([3]; knockout of the ASIC1 gene, n=8): eliminated the effect
- acid-induced LDH release [4]: inhibited acid-induced LDH release
- conductance of TRPM7 channels (TRPM7 channels): had no effect; also recorded: lack of blockade
- infarct volume [5]: 229.7±41.1 mm^3
- peaks in voltage trace after electrical stimulation (hippocampal slice): reduced both the number and amplitude of peaks
- seizure-like electrical activity of neurons [6]: blocked the seizure-like electrical activity
- LDH release at 24 hr, % of maximal (cortical neurons [7]; 100 μM, 10 min before and during 1 hr pH 6.0, without blocker 45.3%±3.8%): 31.1%±2.5%
- LDH release on prolonged incubation (cortical neurons [7]; alone, e.g. 5 hr, n=8): increased LDH release
- baseline LDH release (cortical neurons [7]; pH 7.4 ECF for 1 hr): did not affect baseline LDH release
